According to ChEMBL document CHEMBL1201862, “PubChem BioAssay data set” (2004):
Activity calls are given as the source filed them.

Tests used:
[1] = biological target: Benomyl/methotrexate resistance protein (Candida albicans, UniProt P28873); test: Candida albicans Mdr1 pump inhibition curves – singleplex, Cherry Pick1 hits, dose response (AID 588608); assay type: functional
[2] = biological target: Mitochondrial peptide methionine sulfoxide reductase (Bos taurus, UniProt P54149); assay type: functional;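 note: absorbance read-out, biochemical high-throughput dose-response screen for MsrA inhibitors, confirmatory; recombinant bovine MsrA coupled to E. coli TrxB with NADPH and selenocystamine; potency is for inhibitors of MsrA activity on DMSO substrate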
[3] = HIV-1 Vif–A3G interaction blockers – biochemical, TR-FRET, GST-Vif 1-94, biotin-A3G peptide, dose response retest, primary screen (AID 1117319); assay type: functional;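 note: TR-FRET signal of purified GST-Vif binding a biotinylated A3G peptide; inhibitors lower the FRET signal by blocking Vif and A3G binding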
[4] = Luminescence Cell-Based Dose Response HTS to Identify Inhibitors of 5'UTR Stem-Loop Driven Prion Protein mRNA Translation in H4 Neuroglioblastoma Cells. [Related pubchem assays: 1827 (Project Summary), 1813 (Primary HTS)]; assay type: functional
Streptococcus = test: GAS UMAA2166 growth inhibition – luminescence, BacTiterGlo, counter-screen for streptokinase expression inhibitor project, dose response (AID 1915); assay type: functional, organism-based;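 note: potency for reduction of bacterial viability or growth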
[5] = NIH3T3 cell viability loss – ATP luminescence, mouse fibroblasts, counter-screen, dose response (AID 2010); assay type: functional, cell-based;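 note: cells exposed to compound for about 90 hours before reading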
INS1 = test: INS-1E survival protection against cytokine death – cell-based, luminescence, retest, dose response (AID 449756); assay type: functional; conditions: Rattus norvegicus;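 note: cell death triggered by IL-1 beta plus TNF-alpha plus IFN-gamma mixture; protective hits raise ATP signal compared with cytokine alone wells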
[6] = alpha-synuclein stem-loop luciferase translation blockers – H4 neuroglioma cells, luminescence, confirmation (AID 1988); assay type: functional, cell-based
[7] = biological target: Serine/threonine-protein phosphatase (Candida dubliniensis (strain CD36 / CBS 7987 / NCPF 3949 / NRRLY-17841) (Yeast), UniProt B9W6M3); test: blockers of CaCl2-induced CDRE-lacZ signaling – S. cerevisiae, luminescence, secondary, dose response (AID 2388); assay type: functional, cell-based;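 note: yeast reporter cells carrying a calcineurin-responsive lacZ construct stimulated with calcium chloride; luminescent beta-galactosidase reporter signal in whole cells rather than isolated phosphatase activity; potency for inhibition where a drop in reporter signal means calcineurin blockade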
[8] = biological target: ATP-dependent molecular chaperone HSP82 (Candida albicans (strain WO-1) (Yeast), UniProt C4YTQ8); test: steroid-induced GRE reporter decrease in yeast – S. cerevisiae, luminescence, Hsp90 inhibitor project, dose response (AID 2400); assay type: functional, cell-based;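 note: beta-galactosidase luminescence from glucocorticoid response element reporter as proxy for Hsp90 function; inhibitor potency where signal loss means Hsp90 inhibition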
[9] = Trypanosoma cruzi growth suppression in host cells – NIH3T3 host cells, beta-gal luminescence, confirmation (AID 2044); assay type: functional, cell-based;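 note: intracellular parasites grown in NIH/3T3 mouse fibroblasts as host cells; luminescent beta-galactosidase reporter signal from transgenic T. cruzi replicating inside host cells; inhibitors lower the luminescence signal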
[10] = luciferase reporter signal suppression in cells – H4 neuroglioma cells, luminescence, dose response (AID 1990); assay type: functional, cell-based
[11] = test system: Streptococcus sp. 'group A'; test: Streptococcus pyogenes SK(-)GAS viability under kanamycin – luminescence, BacTiterGlo, confirmation, counter-screen for streptokinase expression inhibitor project, dose response (AID 1900); assay type: functional, organism-based
[12] = mammalian cell viability loss – Alamar Blue, dry powder, cytotoxicity control for antifungal single agent project, dose response (AID 602188); assay type: functional, cell-based
[13] = fluconazole-exposed Candida albicans growth modulators – fluorescence, retest, confirmation (AID 2467); assay type: functional, cell-based
[14] = NIH-3T3 fibroblast cytotoxicity, dose response, cytotoxicity control, cell-based, fluorescence, Alamar Blue, secondary assay (AID 2327); assay type: functional;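 note: NIH-3T3 mouse fibroblasts cultured with fluconazole at 8 µg/mL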
[15] = biological target: Melanin-concentrating hormone receptor 1 (Homo sapiens, UniProt Q99705); test: Late-stage fluorescence-based counterscreen for antagonists of the G-protein coupled receptor 7 (GPR7): cell-based dose response assay to identify antagonists of the melanin-concentrating hormone receptor 1 (MCHR1) Set 6.; assay type: functional
[16] = biological target: T1, Neuropeptides B/W receptor type 1 (Homo sapiens, UniProt P48145); test: human NPBW1 receptor blockade, IC50 – cell-based, fluorescence, dose response, set 6, late-stage follow-up (AID 588583); assay type: functional
T1 sequence (P48145 whole entry): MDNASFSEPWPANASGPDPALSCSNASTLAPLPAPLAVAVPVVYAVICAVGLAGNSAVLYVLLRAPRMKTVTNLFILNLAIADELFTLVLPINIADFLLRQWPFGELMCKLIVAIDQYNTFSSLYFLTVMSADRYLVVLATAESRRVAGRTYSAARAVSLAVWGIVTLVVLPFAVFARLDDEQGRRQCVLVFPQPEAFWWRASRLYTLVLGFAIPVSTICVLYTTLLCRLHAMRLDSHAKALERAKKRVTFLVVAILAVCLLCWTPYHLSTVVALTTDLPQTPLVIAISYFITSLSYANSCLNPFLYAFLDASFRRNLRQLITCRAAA

[17] = biological target: Ras and Rab interactor 1/Tyrosine-protein kinase ABL1 (Homo sapiens, UniProt P00519+Q13671); assay type: functional;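 note: biochemical TR-FRET dose-response test measuring inhibition of binding between Rin1 and Abl proteins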
[18] = biological target: T2, Orexin/Hypocretin receptor type 1 (Homo sapiens, UniProt O43613); test: Homogeneous Time Resolved Fluorescence (HTRF)-based cell-based high throughput dose response assay for antagonists of the orexin 1 receptor (OX1R; HCRTR1). [Related pubchem assays (depositor defined):AID434989, AID435008, AID463079, AID485270, AID492963, AID492964, AID492965, AID493232, AID504717, AID504718]; assay type: functional
T2 sequence (O43613 whole entry): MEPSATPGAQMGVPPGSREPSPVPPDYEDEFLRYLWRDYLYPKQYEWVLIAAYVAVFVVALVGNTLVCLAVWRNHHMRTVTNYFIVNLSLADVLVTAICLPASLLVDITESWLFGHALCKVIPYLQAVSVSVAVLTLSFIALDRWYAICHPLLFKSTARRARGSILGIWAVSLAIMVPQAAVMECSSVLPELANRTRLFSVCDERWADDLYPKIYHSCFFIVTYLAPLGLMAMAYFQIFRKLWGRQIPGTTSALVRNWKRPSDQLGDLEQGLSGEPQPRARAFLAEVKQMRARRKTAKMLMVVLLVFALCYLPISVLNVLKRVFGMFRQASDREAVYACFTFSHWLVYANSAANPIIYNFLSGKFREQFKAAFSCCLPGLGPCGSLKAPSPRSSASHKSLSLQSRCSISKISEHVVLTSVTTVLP

CHO-K1 = test: (§1) Counterscreen for antagonists of the orexin 1 receptor (OX1R; HCRTR1): Homogeneous time resolved fluorescence (HTRF)-based cell-based dose response assay to identify antagonists of the parental CHO-K1 cell line. [Related pubchem assays (depositor defined):AID434989, AID435008, AID463079, AID485270, AID492963, AID492964, AID492965, AID493232, AID504699, AID504701]; assay type: functional; conditions: Cricetulus griseus
Orexin receptor type 2 [19] = biological target: T3, Orexin receptor type 2 (Homo sapiens, UniProt O43614); test: Counterscreen assay for antagonists of the orexin 1 receptor (OX1R; HCRTR1): Fluorescence-based cell-based dose response assay for antagonists of the orexin 2 receptor (OX2R; HCRTR2), run by assay provider.; assay type: functional
T3 sequence (O43614 whole entry): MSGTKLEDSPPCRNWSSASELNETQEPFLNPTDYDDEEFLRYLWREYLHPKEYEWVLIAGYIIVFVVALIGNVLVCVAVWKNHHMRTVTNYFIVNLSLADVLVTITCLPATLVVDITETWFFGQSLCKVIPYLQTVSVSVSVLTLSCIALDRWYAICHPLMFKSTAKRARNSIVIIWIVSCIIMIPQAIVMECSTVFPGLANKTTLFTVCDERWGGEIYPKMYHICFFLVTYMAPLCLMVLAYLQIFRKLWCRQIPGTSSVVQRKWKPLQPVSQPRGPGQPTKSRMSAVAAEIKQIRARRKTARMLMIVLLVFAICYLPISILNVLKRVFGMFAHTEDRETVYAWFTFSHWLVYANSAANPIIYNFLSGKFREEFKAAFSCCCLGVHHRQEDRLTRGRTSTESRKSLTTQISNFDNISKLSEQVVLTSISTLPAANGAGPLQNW

[20] = as §1, with “Fluorescence-based” for “Homogeneous time resolved fluorescence (HTRF)-based”, “cell-based high throughput” for “cell-based”, “CHO” for “CHO-K1”; assay type: functional
[21] = biological target: T2, Orexin/Hypocretin receptor type 1; test: Fluorescence-based cell-based high throughput dose response assay for antagonists of the orexin 1 receptor (OX1R; HCRTR1). [Related pubchem assays (depositor defined):AID434989, AID435008, AID463079, AID485270, AID492963, AID492964, AID492965, AID493232, AID504717, AID504718]; assay type: functional
Orexin receptor type 2 [22] = biological target: T3, Orexin receptor type 2; test: Counterscreen assay for antagonists of the orexin 1 receptor (OX1R; HCRTR1): Homogeneous Time Resolved Fluorescence (HTRF)-based cell-based dose response assay for antagonists of the orexin 2 receptor (OX2R; HCRTR2), run by assay provider.; assay type: functional
Melanocortin receptor 4 = Melanocortin receptor 4 (Homo sapiens, UniProt P32245); assay type: functional, cell-based;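 note: Cell-based assay with luminescence read-out, confirmatory dose-response testing for agonist activity of biased ligands at MC4R; human U2OS cells with tagged receptor and beta-arrestin; potency of agonists that increase receptor coupling to beta-arrestin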
Aurora kinase B = Aurora kinase B (Homo sapiens, UniProt Q96GD4); assay type: functional
[23] = biological target: Potassium voltage-gated channel subfamily KQT member 2 (Rattus norvegicus, UniProt O88943); test: blockers of KCNQ2 channel current – cell-based, automated electrophysiology, set II, rat KCNQ2, dose response (AID 588637); assay type: functional
[24] = biological target: Tyrosine-protein phosphatase non-receptor type 5 (Homo sapiens, UniProt P54829); test: PTPN5 enzyme inhibition – biochemical, fluorescence intensity, uHTS hits, confirmation (AID 602372); assay type: functional; conditions: read-out: IC50_Mean
Streptokinase A = biological target: T4, Streptokinase A (Streptococcus pyogenes serotype M1, UniProt P10520); test: viability-normalized secreted streptokinase activity reduction – plasminogen activation absorbance, OD405, dose response (AID 1914); assay type: functional, Streptococcus pyogenes M1 GAS;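 note: secreted streptokinase activity via plasminogen activation per viability signal from cell pellet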
T4 sequence (P10520 whole entry): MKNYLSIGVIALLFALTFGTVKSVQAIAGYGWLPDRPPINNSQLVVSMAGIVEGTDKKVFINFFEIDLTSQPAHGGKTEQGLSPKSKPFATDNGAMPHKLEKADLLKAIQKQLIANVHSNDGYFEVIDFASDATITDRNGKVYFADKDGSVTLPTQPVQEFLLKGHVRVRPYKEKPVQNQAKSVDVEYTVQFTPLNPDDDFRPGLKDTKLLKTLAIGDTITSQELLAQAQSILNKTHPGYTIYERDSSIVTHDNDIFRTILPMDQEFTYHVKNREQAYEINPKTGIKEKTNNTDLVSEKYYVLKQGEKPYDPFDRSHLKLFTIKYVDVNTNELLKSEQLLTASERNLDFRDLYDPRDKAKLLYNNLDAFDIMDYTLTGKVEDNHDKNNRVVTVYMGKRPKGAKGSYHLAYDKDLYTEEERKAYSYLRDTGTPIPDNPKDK

[25] = biological target: Tyrosine-protein phosphatase non-receptor type 11 (Homo sapiens, UniProt Q06124); test: PTPN11 enzyme inhibitors – biochemical, selectivity assay for STEP inhibitor project, dose response (AID 602367); assay type: functional; conditions: read-out: IC50_Mean
[26] = biological target: Dual specificity protein phosphatase 3 (Homo sapiens, UniProt P51452); test: VHR phosphatase inhibition, dose response, selectivity assay for STEP inhibitor project, biochemical (AID 602374); assay type: functional; conditions: read-out: IC50_Mean
Chain of Dual specificity protein phosphatase 3 (P51452 whole entry): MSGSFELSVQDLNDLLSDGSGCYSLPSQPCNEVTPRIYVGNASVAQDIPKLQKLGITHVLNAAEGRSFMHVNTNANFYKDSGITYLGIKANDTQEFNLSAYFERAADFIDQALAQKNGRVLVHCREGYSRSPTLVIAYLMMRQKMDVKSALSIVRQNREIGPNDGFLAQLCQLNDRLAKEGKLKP

Chain of Melanin-concentrating hormone receptor 1 (Q99705 whole entry): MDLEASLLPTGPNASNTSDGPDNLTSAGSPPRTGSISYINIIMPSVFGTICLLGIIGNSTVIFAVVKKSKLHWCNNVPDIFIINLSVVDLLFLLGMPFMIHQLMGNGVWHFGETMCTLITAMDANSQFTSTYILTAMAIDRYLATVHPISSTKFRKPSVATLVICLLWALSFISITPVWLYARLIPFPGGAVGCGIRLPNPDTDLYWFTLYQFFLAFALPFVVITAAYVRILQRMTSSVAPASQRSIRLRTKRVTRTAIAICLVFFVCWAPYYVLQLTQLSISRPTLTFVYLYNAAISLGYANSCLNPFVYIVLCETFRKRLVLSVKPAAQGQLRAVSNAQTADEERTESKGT
Chain of Mitochondrial peptide methionine sulfoxide reductase (P54149 whole entry): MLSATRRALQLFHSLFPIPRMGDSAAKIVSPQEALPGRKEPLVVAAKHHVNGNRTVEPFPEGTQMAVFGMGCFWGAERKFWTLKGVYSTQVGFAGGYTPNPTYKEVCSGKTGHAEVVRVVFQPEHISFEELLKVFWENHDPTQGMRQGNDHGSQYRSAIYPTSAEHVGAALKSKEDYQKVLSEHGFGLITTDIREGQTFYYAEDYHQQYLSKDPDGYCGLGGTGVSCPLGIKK
Chain of Melanocortin receptor 4 (P32245 whole entry): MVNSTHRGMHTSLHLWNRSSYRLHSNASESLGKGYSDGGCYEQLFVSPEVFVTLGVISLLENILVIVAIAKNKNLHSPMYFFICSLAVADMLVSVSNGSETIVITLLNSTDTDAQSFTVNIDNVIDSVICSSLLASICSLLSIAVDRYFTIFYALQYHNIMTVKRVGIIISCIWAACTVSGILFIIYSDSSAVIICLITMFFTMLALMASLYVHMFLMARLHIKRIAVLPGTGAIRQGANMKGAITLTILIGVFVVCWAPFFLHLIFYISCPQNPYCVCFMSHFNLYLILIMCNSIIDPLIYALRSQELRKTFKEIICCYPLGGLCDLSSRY
Chain of Tyrosine-protein phosphatase non-receptor type 11 (Q06124 whole entry): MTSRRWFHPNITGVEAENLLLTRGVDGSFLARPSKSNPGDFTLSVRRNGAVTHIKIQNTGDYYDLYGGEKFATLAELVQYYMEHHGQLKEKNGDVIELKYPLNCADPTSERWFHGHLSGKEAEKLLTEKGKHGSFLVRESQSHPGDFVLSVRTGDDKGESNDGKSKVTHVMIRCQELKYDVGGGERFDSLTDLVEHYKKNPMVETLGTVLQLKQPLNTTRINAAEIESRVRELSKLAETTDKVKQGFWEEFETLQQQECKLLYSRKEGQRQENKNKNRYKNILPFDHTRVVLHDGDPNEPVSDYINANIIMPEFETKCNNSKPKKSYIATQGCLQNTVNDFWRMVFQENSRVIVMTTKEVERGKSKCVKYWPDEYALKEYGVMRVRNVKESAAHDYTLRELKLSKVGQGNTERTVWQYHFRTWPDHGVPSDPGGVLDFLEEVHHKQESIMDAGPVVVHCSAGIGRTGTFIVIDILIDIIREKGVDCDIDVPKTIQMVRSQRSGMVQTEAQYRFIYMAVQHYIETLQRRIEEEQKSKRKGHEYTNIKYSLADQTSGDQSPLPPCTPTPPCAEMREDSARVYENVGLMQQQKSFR
Chain of Ras and Rab interactor 1/Tyrosine-protein kinase ABL1 (P00519 whole entry): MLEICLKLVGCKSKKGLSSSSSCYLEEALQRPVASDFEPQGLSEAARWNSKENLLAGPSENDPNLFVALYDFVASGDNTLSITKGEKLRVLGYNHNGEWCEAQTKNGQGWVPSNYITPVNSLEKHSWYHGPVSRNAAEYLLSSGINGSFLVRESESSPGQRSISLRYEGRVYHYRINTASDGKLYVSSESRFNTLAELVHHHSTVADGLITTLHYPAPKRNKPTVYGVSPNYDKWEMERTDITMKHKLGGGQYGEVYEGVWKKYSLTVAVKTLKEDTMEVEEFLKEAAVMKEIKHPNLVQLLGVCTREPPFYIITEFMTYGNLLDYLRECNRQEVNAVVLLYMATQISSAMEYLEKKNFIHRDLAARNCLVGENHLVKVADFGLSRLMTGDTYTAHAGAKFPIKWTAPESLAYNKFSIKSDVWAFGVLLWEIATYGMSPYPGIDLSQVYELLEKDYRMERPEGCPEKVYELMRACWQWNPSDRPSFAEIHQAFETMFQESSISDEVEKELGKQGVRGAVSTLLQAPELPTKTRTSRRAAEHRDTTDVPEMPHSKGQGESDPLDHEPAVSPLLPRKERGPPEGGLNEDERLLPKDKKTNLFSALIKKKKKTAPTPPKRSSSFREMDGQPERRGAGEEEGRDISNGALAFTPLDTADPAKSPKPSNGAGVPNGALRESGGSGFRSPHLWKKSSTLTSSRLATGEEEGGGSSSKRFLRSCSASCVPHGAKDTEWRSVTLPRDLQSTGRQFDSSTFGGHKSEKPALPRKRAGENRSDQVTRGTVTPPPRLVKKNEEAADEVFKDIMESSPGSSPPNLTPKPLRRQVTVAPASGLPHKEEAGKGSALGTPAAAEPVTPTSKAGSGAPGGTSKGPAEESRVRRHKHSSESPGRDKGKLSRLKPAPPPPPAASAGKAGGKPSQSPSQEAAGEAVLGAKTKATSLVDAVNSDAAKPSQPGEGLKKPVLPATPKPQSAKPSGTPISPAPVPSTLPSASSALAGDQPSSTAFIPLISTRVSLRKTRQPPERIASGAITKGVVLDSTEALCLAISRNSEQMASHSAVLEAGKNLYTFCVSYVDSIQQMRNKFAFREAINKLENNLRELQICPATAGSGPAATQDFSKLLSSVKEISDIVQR
Chain of Ras and Rab interactor 1/Tyrosine-protein kinase ABL1 (Q13671 whole entry): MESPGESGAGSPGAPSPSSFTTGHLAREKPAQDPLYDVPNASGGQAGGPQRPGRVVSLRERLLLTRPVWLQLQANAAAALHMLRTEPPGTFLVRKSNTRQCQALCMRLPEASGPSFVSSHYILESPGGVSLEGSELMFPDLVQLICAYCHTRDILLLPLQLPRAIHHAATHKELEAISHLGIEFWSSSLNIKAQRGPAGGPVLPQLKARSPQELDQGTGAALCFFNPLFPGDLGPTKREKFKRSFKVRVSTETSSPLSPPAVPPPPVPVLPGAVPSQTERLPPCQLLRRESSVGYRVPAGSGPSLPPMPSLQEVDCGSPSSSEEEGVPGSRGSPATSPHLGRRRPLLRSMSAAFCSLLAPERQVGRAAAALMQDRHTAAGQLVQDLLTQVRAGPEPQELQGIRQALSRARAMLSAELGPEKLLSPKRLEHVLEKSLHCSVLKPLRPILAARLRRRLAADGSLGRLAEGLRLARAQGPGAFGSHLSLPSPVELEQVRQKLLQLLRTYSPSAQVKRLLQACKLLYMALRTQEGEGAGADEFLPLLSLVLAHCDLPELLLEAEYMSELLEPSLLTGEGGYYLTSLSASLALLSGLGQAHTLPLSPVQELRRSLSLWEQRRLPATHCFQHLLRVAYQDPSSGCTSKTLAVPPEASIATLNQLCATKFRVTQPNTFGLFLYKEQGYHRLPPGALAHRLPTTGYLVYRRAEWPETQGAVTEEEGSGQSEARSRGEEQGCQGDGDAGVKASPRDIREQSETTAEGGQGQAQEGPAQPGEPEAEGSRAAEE
Chain of Benomyl/methotrexate resistance protein (P28873 whole entry): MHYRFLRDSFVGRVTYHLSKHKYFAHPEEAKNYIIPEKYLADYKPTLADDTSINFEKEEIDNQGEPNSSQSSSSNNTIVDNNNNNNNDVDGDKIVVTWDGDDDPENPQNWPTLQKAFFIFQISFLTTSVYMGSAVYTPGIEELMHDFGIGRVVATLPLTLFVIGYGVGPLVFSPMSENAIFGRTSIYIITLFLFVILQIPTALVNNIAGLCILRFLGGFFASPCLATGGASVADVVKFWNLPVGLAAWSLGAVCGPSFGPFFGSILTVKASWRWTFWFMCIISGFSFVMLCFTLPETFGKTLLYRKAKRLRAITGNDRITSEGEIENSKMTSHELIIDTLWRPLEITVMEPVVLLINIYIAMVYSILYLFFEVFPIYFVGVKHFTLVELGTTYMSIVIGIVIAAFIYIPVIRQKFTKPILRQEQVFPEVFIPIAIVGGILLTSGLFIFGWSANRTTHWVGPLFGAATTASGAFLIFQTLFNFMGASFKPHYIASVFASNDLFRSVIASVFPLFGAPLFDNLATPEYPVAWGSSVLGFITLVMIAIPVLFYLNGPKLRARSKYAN
Chain of Potassium voltage-gated channel subfamily KQT member 2 (O88943 whole entry): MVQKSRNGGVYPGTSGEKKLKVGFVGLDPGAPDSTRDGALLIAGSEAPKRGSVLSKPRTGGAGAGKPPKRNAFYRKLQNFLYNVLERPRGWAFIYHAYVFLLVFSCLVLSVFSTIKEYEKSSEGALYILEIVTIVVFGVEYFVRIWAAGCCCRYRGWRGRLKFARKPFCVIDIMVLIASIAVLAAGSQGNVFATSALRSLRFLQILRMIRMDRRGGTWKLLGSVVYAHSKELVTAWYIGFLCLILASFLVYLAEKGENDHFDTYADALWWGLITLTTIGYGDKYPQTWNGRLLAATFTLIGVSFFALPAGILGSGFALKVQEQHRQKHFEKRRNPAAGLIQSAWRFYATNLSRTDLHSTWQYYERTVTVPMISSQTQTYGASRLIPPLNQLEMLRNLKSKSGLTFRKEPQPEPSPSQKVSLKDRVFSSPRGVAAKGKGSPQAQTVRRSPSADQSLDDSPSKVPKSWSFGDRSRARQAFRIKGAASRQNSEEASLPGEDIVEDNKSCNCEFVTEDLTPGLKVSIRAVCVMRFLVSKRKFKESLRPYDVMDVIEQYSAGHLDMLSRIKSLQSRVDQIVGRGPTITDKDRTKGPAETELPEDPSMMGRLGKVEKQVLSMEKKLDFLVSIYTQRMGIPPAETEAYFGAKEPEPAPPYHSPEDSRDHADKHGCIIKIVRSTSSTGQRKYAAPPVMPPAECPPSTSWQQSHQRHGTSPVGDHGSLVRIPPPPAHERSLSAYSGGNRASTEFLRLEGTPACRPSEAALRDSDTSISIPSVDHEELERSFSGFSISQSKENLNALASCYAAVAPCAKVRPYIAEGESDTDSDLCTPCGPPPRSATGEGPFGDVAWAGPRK

In the case of `Cc1cccc(C)c1-n1c(SCC(=O)N2CC(=O)Nc3ccccc32)nc2ccccc2c1=O`, the EC50 [1] is reported as 10 nM (active).
For `NC(=S)N/N=C/c1ccc(-c2cccc([N+](=O)[O-])c2)o1`, the IC50 [2] was 155 µM (inactive) and the IC50 [3] was > 100 µM (active).
With `CN1CCN(C(c2ccc(C(F)(F)F)cc2)c2ccc3cccnc3c2O)CC1` (centres undefined) the EC50 [4] was 10.3 µM (active), the EC50 (Streptococcus) was 2.91 µM (active) and the EC50 [5] was 7.46 µM (active). For the same molecule, the AC50 (INS1) was 2.43 µM (active), the EC50 [6] was 8.06 µM (active) and the EC50 [7] was > 180 µM (inactive). The EC50 [8] was 14 µM (active), the EC50 [9] was 1.64 µM (active) and the EC50 [10] was 9.1 µM (active). For the same molecule, the EC50 [11] was 2.92 µM (active), the AC50 [12] was 6.73 µM (active) and the EC50 [13] was 676 nM (active). The EC50 [14] was > 150 µM (inconclusive).
With `N#CC(c1c(Cl)cnn(Cc2cccc3ccccc23)c1=O)c1csc2ccccc12` (centres undefined) the IC50 [15] was > 20 µM (inactive) and the IC50 [16] was > 20 µM (inactive).
In the case of `CCOC(=O)C1CCCN(C(=O)c2cn(C)c(=O)c3cc(OC)c(OC)cc23)C1` (centres undefined), the IC50 [17] is reported as 14.1 µM (inactive).
In the case of `CC(C#N)c1c(Cl)cnn(Cc2cccc3ccccc23)c1=O` (centres undefined), the IC50 [15] is reported as 3.1 µM (active) and the IC50 [16] is reported as 3.1 µM (active).
With `C=CCNC(=O)CCC(=O)NNc1nc2ccccc2c2nc(-c3ccccc3)nn12` the IC50 [18] was 1.2 µM (active), the IC50 (CHO-K1) was > 66.2 µM (inactive) and the IC50 (Orexin receptor type 2 [19]) was > 88.8 µM (inactive). The IC50 [20] was > 49.7 µM (inactive), the IC50 [21] was 6.87 µM (active) and the IC50 (Orexin receptor type 2 [22]) was > 50 µM (inactive).
With `CC(=O)Nc1cc(-c2ccc(CO)cc2)cn2c(-c3cccc(C(F)(F)F)c3)cnc12` the EC50 (Melanocortin receptor 4) was > 89.2 µM (inactive).
For `O=C(O)c1ccccc1Nc1ccnc(Nc2ccc(O)cc2)n1`, the Ki (Aurora kinase B) was 2 nM (active).
In the case of `COc1ccc(N(CC(=O)NCCc2cccc(C)c2)S(=O)(=O)c2c(C)noc2C)cc1`, the IC50 [18] is reported as 0.653 µM (active), the IC50 (CHO-K1) is reported as > 66.2 µM (inactive) and the IC50 (Orexin receptor type 2 [19]) is reported as > 88.8 µM (inactive). The IC50 [20] was > 49.8 µM (inactive), the IC50 [21] was 7.14 µM (active) and the IC50 (Orexin receptor type 2 [22]) was 2.27 µM (active).
With `O=C(COc1ccc(Cl)cc1Cl)N(c1ccccn1)C1CCCCC1` the IC50 [23] was 69.9 nM (active).
With `SC1=NC(C23CC4CC(CC(C4)C2)C3)=CC(c2ccc3c(c2)OCO3)N1` (centres undefined) the IC50 [24] was 56.8 µM (inactive), the EC50 (Streptococcus) was > 150 µM (not active) and the EC50 [5] was > 60 µM (not active). The EC50 (Streptokinase A) was 22.5 µM (active), the EC50 [9] was 2.44 µM (active) and the EC50 [11] was 13.6 µM (active). For the same molecule, the IC50 [25] was 15 µM (active) and the IC50 [26] was 3.52 µM (active).
